Data set [1] addresses T1, human Glucagon receptor (GCGR) (Homo sapiens, UniProt P47871).
T1 construct: A cDNA fragment encoding the full-length open reading frame of the human GCGR; expressed in transfected cells; host or cells: CHO-K1, pcDNA3.1+, Lipofectamine 2000
In words: cAMP accumulation assay, CHO-K1 cells expressing human GCGR. Format: cell-based. Conditions: mean pEC50, Table 10.

Data set [2] addresses T2, human GLP-1 receptor (GLP-1R) (Homo sapiens, UniProt P43220).
T2 construct: expressed in transfected cells
In words: cAMP accumulation assay, CHO-K1 cells stably expressing human GLP-1R. Format: cell-based. Conditions: cAMP accumulation, mean pEC50, Table 10.

For data set [3] the following is noted: cited from earlier work.

pEC50: −log10 of the molar value. *1 amine or outer side, *2 acyl side, *3 side chain or, on linkers, in order; H or OH if unused. Where a SMILES comes first, the peptide text is derived from it. Bridges are numbered along the chain shown (N, C = ends). Side-chain parts run from the residue outwards. The star is where a group is joined. C20 diacid = O=C(O)CCCCCCCCCCCCCCCCCCC(=O)*; γGlu = O=C(O)[C@H](CCC(=O)[*:2])N[*:1]; AEEA = NCCOCCOCC(=O)O

T1 sequence (P47871 26-477): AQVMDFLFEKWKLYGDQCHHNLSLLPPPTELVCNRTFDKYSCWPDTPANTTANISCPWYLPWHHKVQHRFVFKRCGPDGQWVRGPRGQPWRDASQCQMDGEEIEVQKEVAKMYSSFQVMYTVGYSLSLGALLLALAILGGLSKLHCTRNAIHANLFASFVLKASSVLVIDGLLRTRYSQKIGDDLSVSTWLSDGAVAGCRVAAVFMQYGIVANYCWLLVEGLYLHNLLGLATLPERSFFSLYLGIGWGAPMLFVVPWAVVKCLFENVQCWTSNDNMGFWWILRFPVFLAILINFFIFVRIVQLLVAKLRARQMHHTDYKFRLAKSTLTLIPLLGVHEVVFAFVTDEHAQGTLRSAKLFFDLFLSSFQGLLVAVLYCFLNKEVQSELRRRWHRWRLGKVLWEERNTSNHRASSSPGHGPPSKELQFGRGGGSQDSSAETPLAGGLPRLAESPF
T2 sequence (P43220 24-463): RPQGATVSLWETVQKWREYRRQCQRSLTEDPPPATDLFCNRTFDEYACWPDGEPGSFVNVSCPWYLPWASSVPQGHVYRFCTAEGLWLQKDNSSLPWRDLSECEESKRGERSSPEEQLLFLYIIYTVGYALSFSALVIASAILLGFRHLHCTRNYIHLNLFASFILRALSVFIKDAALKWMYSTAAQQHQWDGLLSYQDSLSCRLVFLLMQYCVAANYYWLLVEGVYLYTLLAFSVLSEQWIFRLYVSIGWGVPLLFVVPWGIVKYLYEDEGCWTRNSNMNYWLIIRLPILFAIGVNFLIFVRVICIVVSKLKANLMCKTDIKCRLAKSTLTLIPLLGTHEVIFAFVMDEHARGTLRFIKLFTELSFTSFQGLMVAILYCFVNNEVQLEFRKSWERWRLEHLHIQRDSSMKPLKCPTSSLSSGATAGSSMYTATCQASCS

As usually defined, the pEC50 is the negative decadic logarithm of the EC50, by convention in mol/L. A lower pEC50 goes with a large EC50. Regarding `CC(C)C[C@H](NC(=O)[C@H](Cc1ccc(O)cc1)NC(=O)[C@H](CCCCN)NC(=O)[C@H](CO)NC(=O)[C@H](Cc1ccc(O)cc1)NC(=O)[C@H](CC(=O)O)NC(=O)[C@H](CO)NC(=O)[C@@H](NC(=O)[C@H](Cc1ccccc1)NC(=O)[C@@H](NC(=O)CNC(=O)[C@H](Cc1c[nH]cn1)NC(=O)[C@H](CO)NC(=O)[C@@H](N)Cc1ccc(O)cc1)[C@@H](C)O)[C@@H](C)O)C(=O)N[C@@H](CC(=O)O)C(=O)N[C@@H](CCCCNC(=O)CC[C@H](NC(=O)CC[C@H](NC(=O)COCCOCCNC(=O)CCCCCCCCCCCCCCCCCCC(=O)O)C(=O)O)C(=O)O)C(=O)N[C@@H](CCCCN)C(=O)N[C@@H](Cc1ccc(O)cc1)C(=O)N[C@@H](C)C(=O)N[C@H]1CCC(=O)NCCCC[C@@H](C(=O)N[C@@H](Cc2c[nH]c3ccccc23)C(=O)N[C@@H](CC(C)C)C(=O)N[C@@H](CCC(=O)O)C(=O)N[C@@H](CO)C(=O)N[C@@H](CCC(=O)O)C(=O)N2CCC[C@H]2C(=O)N[C@@H](CO)C(=O)N[C@@H](CO)C(=O)NCC(=O)N[C@@H](C)C(=O)N2CCC[C@H]2C(=O)N2CCC[C@H]2C(=O)N2CCC[C@H]2C(=O)N[C@@H](CO)C(=O)O)NC(=O)[C@H](C(C)C)NC(=O)[C@H](Cc2ccccc2)NC(=O)[C@H](CCCCN)NC1=O` [Compound A28] (H-YSHGTFTSDYSKYLDK([γGlu-γGlu-AEEA-C20 diacid])KYAEKFVKWLESEPSSGAPPPS-OH; lactam 20-24; N-terminus assumed), the pEC50 in data set [1] was 11.70; in data set [2], less than 9.00.
With `CC(C)C[C@H](NC(=O)[C@H](Cc1ccc(O)cc1)NC(=O)[C@H](CCCCN)NC(=O)[C@H](CO)NC(=O)[C@H](Cc1ccc(O)cc1)NC(=O)[C@H](CC(=O)O)NC(=O)[C@H](CO)NC(=O)[C@@H](NC(=O)[C@H](Cc1ccccc1)NC(=O)[C@@H](NC(=O)CNC(=O)[C@H](Cc1c[nH]cn1)NC(=O)[C@H](CO)NC(=O)[C@@H](N)Cc1ccc(O)cc1)[C@@H](C)O)[C@@H](C)O)C(=O)N[C@@H](CC(=O)O)C(=O)N[C@@H](CCCCNC(=O)CC[C@H](NC(=O)CC[C@H](NC(=O)COCCOCCNC(=O)CCCCCCCCCCCCCCCCCCC(=O)O)C(=O)O)C(=O)O)C(=O)N[C@@H](CCCCN)C(=O)N[C@@H](Cc1ccc(O)cc1)C(=O)N[C@@H](C)C(=O)N[C@H]1CCC(=O)NCCCC[C@@H](C(=O)N[C@@H](Cc2c[nH]c3ccccc23)C(=O)N[C@@H](CC(C)C)C(=O)N[C@@H](CCC(=O)O)C(=O)N[C@@H](CC(=O)O)C(=O)N[C@@H](CCC(=O)O)C(=O)N2CCC[C@H]2C(=O)N[C@@H](CO)C(=O)N[C@@H](CO)C(=O)NCC(=O)N[C@@H](CCC(=O)O)C(=O)N2CCC[C@H]2C(=O)N2CCC[C@H]2C(=O)N2CCC[C@H]2C(=O)N[C@@H](CO)C(=O)O)NC(=O)[C@H](C(C)C)NC(=O)[C@H](Cc2ccccc2)NC(=O)[C@H](CCCCN)NC1=O` [Compound A31] (H-YSHGTFTSDYSKYLDK([γGlu-γGlu-AEEA-C20 diacid])KYAEKFVKWLEDEPSSGEPPPS-OH; lactam 20-24; N-terminus assumed), the negative-log EC50 (pEC50) was 11.90 in data set [1] and less than 9.00 in data set [2].
Turning to `CC(C)C[C@H](NC(=O)[C@H](Cc1ccc(O)cc1)NC(=O)[C@H](CCCCN)NC(=O)[C@H](CO)NC(=O)[C@H](Cc1ccc(O)cc1)NC(=O)[C@H](CC(=O)O)NC(=O)[C@H](CO)NC(=O)[C@@H](NC(=O)[C@H](Cc1ccccc1)NC(=O)[C@@H](NC(=O)CNC(=O)[C@H](Cc1c[nH]cn1)NC(=O)[C@H](CO)NC(=O)[C@@H](N)Cc1ccc(O)cc1)[C@@H](C)O)[C@@H](C)O)C(=O)N[C@@H](CC(=O)O)C(=O)N[C@@H](CCCCNC(=O)CC[C@H](NC(=O)CC[C@H](NC(=O)COCCOCCNC(=O)CCCCCCCCCCCCCCCCCCC(=O)O)C(=O)O)C(=O)O)C(=O)N[C@@H](CCCCN)C(=O)N[C@@H](Cc1ccc(O)cc1)C(=O)N[C@@H](C)C(=O)N[C@H]1CCC(=O)NCCCC[C@@H](C(=O)N[C@@H](Cc2c[nH]c3ccccc23)C(=O)N[C@@H](CC(C)C)C(=O)N[C@@H](CCC(=O)O)C(=O)N[C@@H](CC(=O)O)C(=O)N[C@@H](CCC(=O)O)C(=O)N2CCC[C@H]2C(=O)N[C@@H](CO)C(=O)N[C@@H](CO)C(=O)NCC(=O)N[C@@H](CCCCN)C(=O)N2CCC[C@H]2C(=O)N2CCC[C@H]2C(=O)N2CCC[C@H]2C(=O)N[C@@H](CO)C(=O)O)NC(=O)[C@H](C(C)C)NC(=O)[C@H](Cc2ccccc2)NC(=O)[C@H](CCCCN)NC1=O` [Compound A32] (H-YSHGTFTSDYSKYLDK([γGlu-γGlu-AEEA-C20 diacid])KYAEKFVKWLEDEPSSGKPPPS-OH; lactam 20-24; N-terminus assumed), the pEC50 in data set [1] is 11.70; in data set [2], less than 9.00.
Take `CC(C)C[C@H](NC(=O)[C@H](Cc1ccc(O)cc1)NC(=O)[C@H](CCCCN)NC(=O)[C@H](CO)NC(=O)[C@H](Cc1ccc(O)cc1)NC(=O)[C@H](CC(=O)O)NC(=O)[C@H](CO)NC(=O)[C@@H](NC(=O)[C@H](Cc1ccccc1)NC(=O)[C@@H](NC(=O)CNC(=O)[C@H](Cc1c[nH]cn1)NC(=O)[C@H](CO)NC(=O)[C@@H](N)Cc1ccc(O)cc1)[C@@H](C)O)[C@@H](C)O)C(=O)N[C@@H](CC(=O)O)C(=O)N[C@@H](CCCCNC(=O)CC[C@H](NC(=O)CC[C@H](NC(=O)COCCOCCNC(=O)CCCCCCCCCCCCCCCCCCC(=O)O)C(=O)O)C(=O)O)C(=O)N[C@@H](CCCCN)C(=O)N[C@@H](Cc1ccc(O)cc1)C(=O)N[C@@H](C)C(=O)N[C@H]1CCC(=O)NCCCC[C@@H](C(=O)N[C@@H](Cc2c[nH]c3ccccc23)C(=O)N[C@@H](CC(C)C)C(=O)N[C@@H](CCC(=O)O)C(=O)N[C@@H](CC(=O)O)C(=O)N[C@@H](CCC(=O)O)C(=O)N2CCC[C@H]2C(=O)N[C@@H](CO)C(=O)N[C@@H](CO)C(=O)NCC(=O)N[C@@H](CO)C(=O)N2CCC[C@H]2C(=O)N2CCC[C@H]2C(=O)N2CCC[C@H]2C(=O)N[C@@H](CO)C(=O)O)NC(=O)[C@H](C(C)C)NC(=O)[C@H](Cc2ccccc2)NC(=O)[C@H](CCCCN)NC1=O` [Compound A33] (H-YSHGTFTSDYSKYLDK([γGlu-γGlu-AEEA-C20 diacid])KYAEKFVKWLEDEPSSGSPPPS-OH; lactam 20-24; N-terminus assumed): the pEC50 was 11.90 in data set [1] and less than 9.00 in data set [2].
For the molecule `CC(C)C[C@H](NC(=O)[C@H](Cc1ccc(O)cc1)NC(=O)[C@H](CCCCN)NC(=O)[C@H](CO)NC(=O)[C@H](Cc1ccc(O)cc1)NC(=O)[C@H](CC(=O)O)NC(=O)[C@H](CO)NC(=O)[C@@H](NC(=O)[C@H](Cc1ccccc1)NC(=O)[C@@H](NC(=O)CNC(=O)[C@H](Cc1c[nH]cn1)NC(=O)[C@H](CO)NC(=O)[C@@H](N)Cc1ccc(O)cc1)[C@@H](C)O)[C@@H](C)O)C(=O)N[C@@H](CC(=O)O)C(=O)N[C@@H](CCCCNC(=O)CC[C@H](NC(=O)CC[C@H](NC(=O)COCCOCCNC(=O)CCCCCCCCCCCCCCCCCCC(=O)O)C(=O)O)C(=O)O)C(=O)N[C@@H](CCCCN)C(=O)N[C@@H](Cc1ccc(O)cc1)C(=O)N[C@@H](C)C(=O)N[C@H]1CCC(=O)NCCCC[C@@H](C(=O)N[C@@H](Cc2c[nH]c3ccccc23)C(=O)N[C@@H](CC(C)C)C(=O)N[C@@H](CCC(=O)O)C(=O)N[C@@H](CC(=O)O)C(=O)N[C@@H](CCC(=O)O)C(=O)N2CCC[C@H]2C(=O)N[C@@H](CO)C(=O)N[C@@H](CO)C(=O)NCC(=O)N[C@@H](C)C(=O)N2CCC[C@H]2C(=O)N2CCC[C@H]2C(=O)N2CCC[C@H]2C(=O)N[C@@H](CO)C(N)=O)NC(=O)[C@H](C(C)C)NC(=O)[C@H](Cc2ccccc2)NC(=O)[C@H](CCCCN)NC1=O` [Compound A34] (H-YSHGTFTSDYSKYLDK([γGlu-γGlu-AEEA-C20 diacid])KYAEKFVKWLEDEPSSGAPPPS-NH2; lactam 20-24), the pEC50 in data set [1] was 11.90; in data set [2], less than 9.00.
Turning to `CC(C)C[C@H](NC(=O)[C@H](Cc1ccc(O)cc1)NC(=O)[C@H](CCCCN)NC(=O)[C@H](CO)NC(=O)[C@H](Cc1ccc(O)cc1)NC(=O)[C@H](CC(=O)O)NC(=O)[C@H](CO)NC(=O)[C@@H](NC(=O)[C@H](Cc1ccccc1)NC(=O)[C@@H](NC(=O)CNC(=O)[C@H](Cc1c[nH]cn1)NC(=O)[C@H](CO)NC(=O)[C@@H](N)Cc1ccc(O)cc1)[C@@H](C)O)[C@@H](C)O)C(=O)N[C@@H](CC(=O)O)C(=O)N[C@@H](CCCCNC(=O)CC[C@H](NC(=O)CC[C@H](NC(=O)COCCOCCNC(=O)CCCCCCCCCCCCCCCCCCC(=O)O)C(=O)O)C(=O)O)C(=O)N[C@@H](CCCCN)C(=O)N[C@@H](Cc1ccc(O)cc1)C(=O)N[C@@H](C)C(=O)N[C@H]1CCC(=O)NCCCC[C@@H](C(=O)N[C@@H](Cc2c[nH]c3ccccc23)C(=O)N[C@@H](CC(C)C)C(=O)N[C@@H](CCC(=O)O)C(=O)N[C@@H](CC(=O)O)C(=O)N[C@@H](CCC(=O)O)C(N)=O)NC(=O)[C@H](C(C)C)NC(=O)[C@H](Cc2ccccc2)NC(=O)[C@H](CCCCN)NC1=O` [Compound A35] (H-YSHGTFTSDYSKYLDK([γGlu-γGlu-AEEA-C20 diacid])KYAEKFVKWLEDE-NH2; lactam 20-24; N-terminus assumed), the results for the pEC50 in data set [1] and in data set [2] were 11.90 and less than 9.00, respectively.
On to “human amylin: Human amylin, or islet amyloid polypeptide (IAPP), is a 37-residue polypeptide hormone (KCNTATCATQRLANFLVHSSNNFGAILSSTNVGSNTY; Islet amyloid polypeptide; UniProt P10997 34-70, looked up)”, for which the half-life in serum result in data set [3] is on record as “about 13 minutes”.

The record behind these values is patent US20240228572A1 (i2o Therapeutics, Inc., priority 2020, published 2024).
